Data: ChEMBL document CHEMBL4673300, “Fragment-Based Discovery of Novel Non-Hydroxamate LpxC Inhibitors with Antibacterial Activity” (J Med Chem, 2020)
Values after ≈ are worked out from the molar mass of the structure shown. Values belong to the molecule of their own block, whether it stands above or below them. Active and inactive are the calls of the source. The rule behind the calls is not given here.

How the values were obtained:
[1] = target: Matrix metalloproteinase-9 (Homo sapiens, UniProt P14780); assay: Inhibition of human MMP-9 by fluorometric assay
Stromelysin-1 = Stromelysin-1 (Homo sapiens, UniProt P08254); assay: Inhibition of human MMP-3 by fluorometric assay
[2] = target: 72 kDa type IV collagenase (Homo sapiens, UniProt P08253); assay: Inhibition of human MMP-2 by fluorometric assay
[3] = target: T1, UDP-3-O-acyl-N-acetylglucosamine deacetylase (Pseudomonas aeruginosa (strain ATCC 15692 / PAO1 / 1C / PRS 101 / LMG12228), UniProt P47205); assay: Inhibition of histidine-tagged Pseudomonas aeruginosa LpxC (1-303) expressed in Escherichia coli BL21 (DE3) using UDP-3-O-(R-3-hydroxydecanoyl)-N-acetylglucosamine as substrate measured after 60 mins by Fluorescence plate reader analysis
T1 sequence (P47205 whole entry): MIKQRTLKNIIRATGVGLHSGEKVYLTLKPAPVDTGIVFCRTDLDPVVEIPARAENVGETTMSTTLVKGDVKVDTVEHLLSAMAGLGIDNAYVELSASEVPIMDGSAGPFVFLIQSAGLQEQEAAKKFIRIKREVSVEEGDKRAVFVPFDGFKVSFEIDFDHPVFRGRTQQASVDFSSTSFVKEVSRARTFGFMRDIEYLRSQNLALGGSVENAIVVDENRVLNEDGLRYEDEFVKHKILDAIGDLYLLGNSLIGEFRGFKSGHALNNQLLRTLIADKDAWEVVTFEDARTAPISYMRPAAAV

[4] = target: T1, UDP-3-O-acyl-N-acetylglucosamine deacetylase; assay: Displacement of (S)-N-(2-(N-(3-biphenyl-4-ylcarboxamido-4-(hydroxyamino)-4-oxobutyl)sulfamoyl)ethyl)-3',6'-dihydroxy-3-oxo-3H-spiro[isobenzofuran-1,9'-xanthene]-5-carboxamide fluorescent probe from histidine tagged Pseudomonas aeruginosa LpxC (1-303) expressed in Escherichia coli BL21 (DE3) preincubated for 30 mins followed by addition of fluorscein probe measured after 2 hrs by fluorescence …
Pseudomonas aeruginosa [5] = assay: Antibacterial activity against Pseudomonas aeruginosa 5567 in presence of human serum albumin by CLSI method; assay type: functional
Pseudomonas aeruginosa [6] = assay: Antibacterial activity against Pseudomonas aeruginosa 5567 in absence of human serum albumin by CLSI method; assay type: functional
Klebsiella pneumoniae = assay: Antibacterial activity against Klebsiella pneumoniae ATCC 13883 by CLSI method; assay type: functional
Pseudomonas aeruginosa [7] = assay: Antibacterial activity against Pseudomonas aeruginosa ATCC 27853 by CLSI method; assay type: functional
Escherichia coli [8] = assay: Antibacterial activity against Escherichia coli ATCC 25922 by CLSI method; assay type: functional
[9] = target: T1, UDP-3-O-acyl-N-acetylglucosamine deacetylase; assay: Inhibition of histidine-tagged Pseudomonas aeruginosa LpxC (1-303) expressed in Escherichia coli BL21 (DE3) using UDP-3-O-(R-3-hydroxydecanoyl)-N-acetylglucosamine as substrate measured after 60 mins by LC-MS/MS analysis
Pseudomonas aeruginosa [10] = assay: Antibacterial activity against Pseudomonas aeruginosa ATCC 27853 in presence of efflux pump inhibitor phenylalanine-arginine beta-naphthylamide by CLSI method; assay type: functional
Escherichia coli [11] = assay: Antibacterial activity against Escherichia coli ATCC 25922 in presence of efflux pump inhibitor phenylalanine-arginine beta-naphthylamideby CLSI method; assay type: functional

Sequence of 72 kDa type IV collagenase (P08253 whole entry): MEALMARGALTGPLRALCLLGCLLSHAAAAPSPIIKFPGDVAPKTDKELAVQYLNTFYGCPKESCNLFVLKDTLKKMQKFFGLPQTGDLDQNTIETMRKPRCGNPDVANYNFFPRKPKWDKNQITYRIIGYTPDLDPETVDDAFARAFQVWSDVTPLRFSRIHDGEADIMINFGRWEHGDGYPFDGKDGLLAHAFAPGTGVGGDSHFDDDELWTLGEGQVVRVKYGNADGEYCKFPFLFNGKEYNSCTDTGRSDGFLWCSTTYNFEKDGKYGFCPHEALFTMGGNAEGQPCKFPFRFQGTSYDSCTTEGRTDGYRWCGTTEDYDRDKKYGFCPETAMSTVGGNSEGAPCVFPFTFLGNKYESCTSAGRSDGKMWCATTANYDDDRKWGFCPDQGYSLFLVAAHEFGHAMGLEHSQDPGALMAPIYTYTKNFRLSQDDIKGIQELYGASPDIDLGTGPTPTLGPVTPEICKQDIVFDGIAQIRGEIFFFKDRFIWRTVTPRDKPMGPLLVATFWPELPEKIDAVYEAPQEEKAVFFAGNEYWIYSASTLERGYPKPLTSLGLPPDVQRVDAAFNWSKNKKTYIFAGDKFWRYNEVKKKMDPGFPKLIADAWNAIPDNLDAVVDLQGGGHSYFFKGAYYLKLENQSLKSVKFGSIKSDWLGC
Sequence of Stromelysin-1 (P08254 whole entry): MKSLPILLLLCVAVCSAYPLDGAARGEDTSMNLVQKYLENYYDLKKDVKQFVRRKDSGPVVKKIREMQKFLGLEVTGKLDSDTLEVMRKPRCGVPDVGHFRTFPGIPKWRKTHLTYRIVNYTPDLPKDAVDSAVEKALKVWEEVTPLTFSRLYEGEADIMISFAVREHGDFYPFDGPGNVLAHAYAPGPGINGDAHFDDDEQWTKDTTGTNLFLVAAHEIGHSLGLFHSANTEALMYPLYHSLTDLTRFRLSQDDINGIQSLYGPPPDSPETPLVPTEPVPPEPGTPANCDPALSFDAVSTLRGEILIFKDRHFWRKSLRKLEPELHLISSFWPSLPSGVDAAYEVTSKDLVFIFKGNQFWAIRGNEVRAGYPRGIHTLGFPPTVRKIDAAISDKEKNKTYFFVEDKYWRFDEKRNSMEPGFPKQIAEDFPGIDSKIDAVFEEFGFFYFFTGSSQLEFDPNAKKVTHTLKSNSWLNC
Sequence of Matrix metalloproteinase-9 (P14780 whole entry): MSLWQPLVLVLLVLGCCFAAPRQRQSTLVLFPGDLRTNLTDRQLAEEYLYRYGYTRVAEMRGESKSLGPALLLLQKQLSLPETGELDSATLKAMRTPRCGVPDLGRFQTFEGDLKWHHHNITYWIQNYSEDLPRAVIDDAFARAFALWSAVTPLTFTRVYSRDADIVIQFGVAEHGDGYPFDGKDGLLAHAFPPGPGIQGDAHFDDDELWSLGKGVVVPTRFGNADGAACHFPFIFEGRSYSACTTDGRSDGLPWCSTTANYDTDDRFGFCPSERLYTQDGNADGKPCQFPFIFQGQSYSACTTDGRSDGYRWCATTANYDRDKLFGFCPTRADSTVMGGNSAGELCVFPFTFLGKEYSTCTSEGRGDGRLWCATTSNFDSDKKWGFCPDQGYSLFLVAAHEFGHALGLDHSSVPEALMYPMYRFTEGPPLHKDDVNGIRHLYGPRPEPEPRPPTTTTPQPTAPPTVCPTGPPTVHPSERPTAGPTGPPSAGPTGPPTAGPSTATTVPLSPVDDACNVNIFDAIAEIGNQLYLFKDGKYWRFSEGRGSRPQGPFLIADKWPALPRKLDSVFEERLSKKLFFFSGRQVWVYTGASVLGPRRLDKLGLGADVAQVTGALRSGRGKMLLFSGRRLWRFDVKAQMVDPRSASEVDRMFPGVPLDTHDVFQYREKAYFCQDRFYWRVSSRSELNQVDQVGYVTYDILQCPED

Compound: C[C@H](O)c1nccn1Cc1cc(C#Cc2ccc(OCCCNCCN)cc2)on1
- MIC (Pseudomonas aeruginosa [5]): 16 µg/mL
- MIC (Pseudomonas aeruginosa [6]): 4 µg/mL (≈ 9.77 µM)
- MIC (Klebsiella pneumoniae): 32 µg/mL (≈ 78.1 µM)
- MIC (Pseudomonas aeruginosa [7]): 2 µg/mL (≈ 4.88 µM)
- MIC (Escherichia coli [8]): 2 µg/mL (≈ 4.88 µM)
- IC50 [3]: 0.00704 µM

Compound: Clc1ccc(OCCCn2ccnc2)cc1
- IC50 [3]: 144 µM
- IC50 [4]: 118 µM

Compound: Clc1ccc(CCn2ccnc2)cc1
- IC50 [4]: 2780 µM

Compound: Clc1ccc(CCCn2ccnc2)cc1
- IC50 [3]: 111 µM
- IC50 [4]: 125 µM

Compound: Clc1ccc(CCCCn2ccnc2)cc1
- IC50 [3]: 60.4 µM
- IC50 [4]: 43.2 µM

Compound: CC(O)c1nccn1CCc1ccc(-c2ccccc2)cc1 (racemic)
- IC50 [3]: 10.4 µM
- IC50 [4]: 6.48 µM

Compound: OCc1nccn1CCCc1ccc(Cl)cc1
- IC50 [3]: 108 µM
- IC50 [4]: 36.7 µM

Compound: CC(O)c1nccn1Cc1cc(C#Cc2ccc(CCCO)cc2)on1 (racemic)
- MIC (Pseudomonas aeruginosa [5]): > 128 µg/mL
- MIC (Pseudomonas aeruginosa [6]): 32 µg/mL (≈ 91.1 µM)
- MIC (Klebsiella pneumoniae): 4 µg/mL (≈ 11.4 µM)
- MIC (Pseudomonas aeruginosa [7]): 64 µg/mL (≈ 182 µM)
- MIC (Escherichia coli [8]): 2 µg/mL (≈ 5.69 µM)
- IC50 [3]: 0.00896 µM

Compound: CC(O)c1nccn1CCCc1ccc(Cl)cc1 (racemic)
- IC50 [3]: 10.4 µM
- IC50 [4]: 0.809 µM

Compound: CC(O)c1nccn1CCCc1ccc(-c2ccccc2)cc1 (racemic)
- IC50 [3]: 0.133 µM
- IC50 [4]: 0.0269 µM

Compound: C[C@H](O)c1nccn1Cc1cc(C#Cc2ccc(CCCO)cc2)on1
- MIC (Pseudomonas aeruginosa [5]): > 64 µg/mL
- MIC (Pseudomonas aeruginosa [6]): 16 µg/mL (≈ 45.5 µM)
- MIC (Klebsiella pneumoniae): 2 µg/mL (≈ 5.69 µM)
- MIC (Pseudomonas aeruginosa [7]): 32 µg/mL (≈ 91.1 µM)
- MIC (Escherichia coli [8]): 0.5 µg/mL (≈ 1.42 µM)
- IC50 [3]: 0.00403 µM

Compound: CC(O)c1nccn1CCCc1ccc(C#Cc2ccccc2)cc1 (racemic)
- IC50 [3]: 0.161 µM
- IC50 [4]: 0.0522 µM

Compound: C[C@H](O)c1nccn1Cc1cc(C#Cc2ccc(OCCCNC3COC3)cc2)on1
- MIC (Pseudomonas aeruginosa [5]): 64 µg/mL
- MIC (Pseudomonas aeruginosa [6]): 8 µg/mL (≈ 18.9 µM)
- MIC (Klebsiella pneumoniae): 1 µg/mL (≈ 2.37 µM)
- MIC (Pseudomonas aeruginosa [7]): 8 µg/mL (≈ 18.9 µM)
- MIC (Escherichia coli [8]): 1 µg/mL (≈ 2.37 µM)
- IC50 [3]: 0.00463 µM

Compound: CC(O)c1nccn1Cc1ccc(C#Cc2ccccc2)cc1 (racemic)
- Activity (Escherichia coli [11]): inactive
- IC50 [3]: 0.568 µM
- IC50 [4]: 0.0929 µM

Compound: CC(O)c1nccn1Cc1ccc(Cl)cc1 (racemic)
- IC50 [3]: 214 µM
- IC50 [4]: 39.9 µM

Compound: C[C@@H](O)c1nccn1Cc1cc(C#Cc2ccc(CCCO)cc2)on1
- MIC (Pseudomonas aeruginosa [5]): > 128 µg/mL
- MIC (Pseudomonas aeruginosa [6]): > 128 µg/mL
- MIC (Klebsiella pneumoniae): > 128 µg/mL
- MIC (Pseudomonas aeruginosa [7]): > 128 µg/mL
- MIC (Escherichia coli [8]): > 128 µg/mL
- IC50 [3]: 1.4 µM

Compound: CC(O)c1nccn1Cc1ccc(-c2ccccc2)cc1 (racemic)
- IC50 [3]: 3.94 µM
- IC50 [4]: 0.546 µM

Compound: CC(O)c1nccn1CCc1ccc(C#Cc2ccccc2)cc1 (racemic)
- IC50 [3]: 2.4 µM
- IC50 [4]: 1.76 µM

Compound: CC(O)c1nccn1Cc1cc(C#Cc2ccccc2)on1 (racemic)
- MIC (Pseudomonas aeruginosa [5]): > 128 µg/mL
- MIC (Pseudomonas aeruginosa [6]): 64 µg/mL (≈ 218 µM)
- MIC (Klebsiella pneumoniae): 32 µg/mL (≈ 109 µM)
- MIC (Pseudomonas aeruginosa [7]): > 128 µg/mL
- MIC (Escherichia coli [8]): 16 µg/mL (≈ 54.5 µM)
- IC50 [3]: 0.0475 µM
- IC50 [4]: 0.0206 µM

Second part, the molecule after the results:

- IC50 [1]: 0.0972 µM
- IC50 (Stromelysin-1): 0.416 µM
- IC50 [2]: 0.0175 µM
Compound: O=C(NO)[C@@H](Cc1ccc2ccccc2c1)NS(=O)(=O)c1ccc2ccccc2c1

- IC50 [3]: 1130 µM
- IC50 [4]: > 2000 µM
Compound: OC(COc1ccccc1)Cn1ccnc1 (racemic)

- MIC (Pseudomonas aeruginosa [5]): 16 µg/mL
- MIC (Pseudomonas aeruginosa [6]): 4 µg/mL (≈ 9.79 µM)
- MIC (Klebsiella pneumoniae): 4 µg/mL (≈ 9.79 µM)
- MIC (Pseudomonas aeruginosa [7]): 4 µg/mL (≈ 9.79 µM)
- MIC (Escherichia coli [8]): 4 µg/mL (≈ 9.79 µM)
- IC50 [3]: 0.00442 µM
Compound: C[C@H](O)c1nccn1Cc1cc(C#Cc2ccc(OC3CN(CCO)C3)cc2)on1

- IC50 [3]: 261 µM
- IC50 [4]: 67.8 µM
Compound: CC(O)c1nccn1CCc1ccc(Cl)cc1 (racemic)

- IC50 [9]: 0.034 µM
Compound: N[C@H](CO)C(=O)N1CCC(Cc2ccc(C#Cc3ccccc3)cc2)CC1

- IC50 [9]: 11.3 µM
- IC50 [4]: 5.69 µM
Compound: N[C@H](CC(=O)O)C(=O)Nc1cccc(OC(F)(F)F)c1

- IC50 [9]: 36.7 µM
- IC50 [4]: 40.1 µM
Compound: NC[C@@H](N)C(=O)Nc1cccc(OC(F)(F)F)c1

- IC50 [9]: 24.9 µM
Compound: N[C@H](CO)C(=O)N1CCC(Cc2ccccc2)CC1

- IC50 [1]: > 100 µM
- IC50 (Stromelysin-1): > 100 µM
- IC50 [2]: > 100 µM
- MIC (Pseudomonas aeruginosa [5]): 8 µg/mL
- MIC (Pseudomonas aeruginosa [6]): 4 µg/mL (≈ 9.7 µM)
- MIC (Klebsiella pneumoniae): 64 µg/mL (≈ 155 µM)
- MIC (Pseudomonas aeruginosa [7]): 4 µg/mL (≈ 9.7 µM)
- MIC (Escherichia coli [8]): 16 µg/mL (≈ 38.8 µM)
- IC50 [3]: 0.02 µM
Compound: C[C@H](O)c1nccn1Cc1cc(C#Cc2ccc(OCC(N)(CO)CO)cc2)on1

- IC50 [9]: 0.66 µM
Compound: N[C@H](CO)C(=O)N1CCC(Cc2ccc(-c3ccccc3)cc2)CC1

- IC50 [9]: > 100 µM
- IC50 [4]: > 100 µM
Compound: CS(=O)(=O)C[C@@H](N)C(=O)Nc1cccc(OC(F)(F)F)c1

- IC50 [9]: 41.9 µM
- IC50 [4]: 54.9 µM
Compound: NCC(=O)Nc1cccc(OC(F)(F)F)c1

- MIC (Pseudomonas aeruginosa [7]): > 32 µg/mL
- MIC (Pseudomonas aeruginosa [10]): 32 µg/mL
- MIC (Escherichia coli [8]): > 32 µg/mL
- MIC (Escherichia coli [11]): 16 µg/mL
- IC50 [9]: 0.0221 µM
Compound: N[C@H](CO)C(=O)N1CCC(Cc2ccc(C#Cc3ccc(CO)cc3)cc2)CC1

- IC50 [9]: 4.53 µM
Compound: N[C@H](CO)C(=O)N1CCC(Cc2ccc(CCc3ccccc3)cc2)CC1

- IC50 [9]: 10 µM
- IC50 [4]: 8.97 µM
Compound: CS(=O)(=O)CC[C@@H](N)C(=O)Nc1cccc(OC(F)(F)F)c1

- IC50 (Stromelysin-1): 0.015 µM
Compound: CNC(=O)[C@H](Cc1c[nH]c2ccccc12)NC(=O)[C@@H](CC(=O)NO)CC(C)C [ILOMASTAT]

- IC50 [1]: > 100 µM
- IC50 (Stromelysin-1): > 100 µM
- IC50 [2]: > 100 µM
- MIC (Pseudomonas aeruginosa [7]): 64 µg/mL (≈ 132 µM)
- MIC (Pseudomonas aeruginosa [10]): 8 µg/mL
- MIC (Escherichia coli [8]): 64 µg/mL (≈ 132 µM)
- MIC (Escherichia coli [11]): 1 µg/mL
Compound: CS(=O)(=O)C[C@H](O)[C@@H](N)C(=O)N1CCC(Cc2ccc(C#Cc3ccc(CO)cc3)cc2)CC1 (racemic)

- IC50 [3]: 0.884 µM
- IC50 [4]: 0.125 µM
Compound: CC(O)c1nccn1Cc1cc(-c2ccccc2)on1 (racemic)

- IC50 [9]: 43.8 µM
- IC50 [4]: 37.9 µM
Compound: CS(=O)(=O)NC[C@@H](N)C(=O)Nc1cccc(OC(F)(F)F)c1

- IC50 [3]: 466 µM
- IC50 [4]: 259 µM
Compound: OC(COc1ccc(Cl)cc1)Cn1ccnc1 (racemic)
